Test results from patent publication US20050282840A1, “Methods of modulating neurotrophin-mediated activity” (PainCeptor Pharma Corporation, priority 2004, published 2005).
Like-named read-outs stand apart in the source and are kept apart here.

Assays:
[1] = target: T1, p75^NTR receptors (PC12 cells) (Rattus norvegicus, UniProt P07174); assay: Basic screening assay: binding of 125I-BDNF to PC12 cells; details: for 125I-BDNF Binding (% binding): Example 3 table; for activity at 50 µM: read-out: BDNF Activity % Maximal Binding
T1 construct: endogenous in cells; host or cells: PC12 cells
T1 sequence (P07174 30-425): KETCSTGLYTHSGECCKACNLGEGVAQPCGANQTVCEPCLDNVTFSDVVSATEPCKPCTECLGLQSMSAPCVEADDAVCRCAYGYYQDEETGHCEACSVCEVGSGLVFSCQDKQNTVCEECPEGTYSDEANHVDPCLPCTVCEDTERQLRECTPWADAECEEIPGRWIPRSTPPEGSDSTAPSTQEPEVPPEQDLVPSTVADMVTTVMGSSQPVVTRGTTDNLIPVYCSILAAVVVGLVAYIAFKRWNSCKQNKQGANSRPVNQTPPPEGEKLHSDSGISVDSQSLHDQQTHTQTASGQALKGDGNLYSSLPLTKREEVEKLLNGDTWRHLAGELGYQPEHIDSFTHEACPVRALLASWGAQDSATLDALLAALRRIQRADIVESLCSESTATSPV
T1 sequence (P23560 129-247 partner): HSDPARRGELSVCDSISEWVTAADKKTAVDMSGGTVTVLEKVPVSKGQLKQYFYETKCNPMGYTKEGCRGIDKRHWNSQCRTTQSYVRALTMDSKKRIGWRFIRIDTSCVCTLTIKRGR
In short: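 4×10^6 PC12 cells incubated 2 h at 4° C, rotating, with 0.5 nM ^125I-BDNF (final) and compound at 50 μM, in duplicate or more. Bound ligand separated through 10% glycerol by centrifugation and counted by gamma counter; specific binding is Bmax minus NSB; inhibitors followed up for EC50.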

[2] = test system: p75^NTR receptors (PC12 cells); assay: Basic screening assay: binding of 125I-NGF to PC12 cells; details: for 125I-NGF Binding (% binding): Example 3 table; for NGF Activity % Maximal Binding: test compound 50 μM, 0.5 nM 125I-NGF, PC12 cells, 2 h at 4° C., specific binding as percent of control
In short: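 Inhibition of 0.5 nM 125I-NGF binding to p75NTR on PC12 cells was measured with compounds at 50 μM during 2 h rotation at 4° C. Cell-bound radioactivity from glycerol-cushion centrifugation was gamma-counted, giving NSB-corrected binding as % of control specific binding.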

[3] = test system: p75; assay: Neurotrophin-receptor crosslinking assay, 125I-NGF (Example 3); format: binding; details: for 125I-NGF X-linking Sample (% binding): crosslinked sample counted on gamma counter; for 125I-NGF X-linking p75 band (% binding): p75 band counted on gamma counter
Protocol: (§1) PC12 cells or TrkB-expressing PC12^nnr5 cells were recovered using Gey's solution, pelleted by centrifugation, and suspended in HKR (HEPES-Krebs Ringer Solution; [10 mM HEPES, 125 mM NaCl, 4.8 mM KCl, 1.3 mM CaCl2.2H2O, 1.2 mM MgSO4, 1.2 mM KH2PO4, 1 mg/mL BSA, 1 mg/mL glucose, pH 7.35]). In a total volume of 1 mL, 1×10^6 cells were incubated, rotating, with 0.1 nM ^125I-BDNF or ^125I-NGF and additions (Compound A or Compound B at the indicated final concentrations) for 2 h at 4° C. At the conclusion of the binding reaction, a 20 μL volume of BS^3 was added to a final concentration of 0.4 mM and incubated, rocking, for an additional 30 min at room temperature. Cells were washed twice in TBS. For analysis of ^125I-NGF crosslinking to TrkA, ^125I-NGF crosslinking to p75^NTR, and ^125I-BDNF crosslinking to p75^NTR, samples were solubilized directly in SDS sample buffer and heated for 10 min at 95° C. For analysis of ^125I-BDNF crosslinking to TrkB, samples were immunoprecipitated with a pan-Trk antibody. All samples were electrophoresed on a 6% SDS-polyacrylamide gel, dried, and autoradiographed. Dried gels were registered to the autoradiograph and each labeled protein band was quantified by direct gamma counting. Non-linear regression analysis was performed by Prism 3.0 to generate concentration-effect curves and determine IC50 values.
(§2) The neurotrophin-receptor crosslinking assay described in Example 1 was used to determine binding of compounds 65, 3, 43 and 97 to ^125I-NGF and ^125I-BDNF.
(§3) ^1The p75 band was excised from the gel and cpm were determined on a gamma counter. Values were calculated as follows: [formula]
(§4) ^2An aliquot of the total crosslinked sample in SDS-sample buffer was counted on a gamma counter. Values were calculated as follows: [formula]

[4] = test system: p75; assay: Neurotrophin-receptor crosslinking assay, 125I-BDNF (Example 3); format: binding; details: for 125I-BDNF X-linking Sample (% binding): crosslinked sample counted on gamma counter; for 125I-BDNF X-linking p75 band (% binding): p75 band counted on gamma counter
Protocol: as §1, §2, §3, §4

[5] = target: T2, p75^NTR (Rattus norvegicus, UniProt P07174); assay: 125I-BDNF crosslinking to p75^NTR receptors on nnr5 cells; format: binding; details: 0.1 nM 125I-BDNF, 2 h at 4° C., read-out: IC50 (mean±S.E.M), inhibition of 125I-BDNF crosslinking to p75^NTR
T2 construct: ^125I-BDNF crosslinking to p75^NTR receptors on nnr5 cells expressing p75^NTR; endogenous in cells; host or cells: PC12^nnr5 cells (TrkB-transfected)
T2 sequence (P07174 30-425): T1 sequence (P07174 30-425)
T2 sequence (P23560 129-247 partner): T1 sequence (P23560 129-247 partner)
Protocol: Cells were incubated at 37° C. in 5% CO2. PC12 and PC12^nnr5 cells were maintained in RPMI-1640 medium supplemented with 10% fetal calf serum (FCS); cells were harvested by replacing the medium with calcium-magnesium-free balanced salt (Gey's) solution and incubating at 37° C. for 15 min. NIH-3T3 cells were grown in Dulbecco's modified Eagle medium: F12 containing 5% FCS; cells were harvested by replacing the medium with a 0.25% trypsin-0.53 mM ethylenediaminetetraacetic acid (EDTA) solution and incubating at 37° C. for 5 min.
The full-length TrkB cDNA was cloned into the CMV plasmid vector. Transient expression of TrkB in PC12^nnr5 cells was achieved by transfecting the cells with the TrkB expression vector using Lipofectamine Plus reagents (Invitrogen Canada Inc; Burlington, ON). PC12^nnr5 cells were passed through a syringe fitted with a 21-gauge needle several times to prevent clumping. In a 100 mm dish, 10×10^6 cells were plated and used for transfection the next day. […]
PC12 cells or TrkB-expressing PC12^nnr5 cells were recovered using Gey's solution, pelleted by centrifugation, and suspended in HKR (HEPES-Krebs Ringer Solution; [10 mM HEPES, 125 mM NaCl, 4.8 mM KCl, 1.3 mM CaCl2.2H2O, 1.2 mM MgSO4, 1.2 mM KH2PO4, 1 mg/mL BSA, 1 mg/mL glucose, pH 7.35]). […] Dried gels were registered to the autoradiograph and each labeled protein band was quantified by direct gamma counting. […]

[6] = Table 1, test compound 50 μM, 0.5 nM 125I-BDNF, PC12 cells, 2 h at 4° C., specific binding as percent of control
[7] = Table 4, test compound 50 μM, 0.5 nM 125I-BDNF, PC12 cells, 2 h at 4° C., specific binding as percent of control

SMILES: Cc1cc(-c2ccc(C=C3C(=O)NC(=S)NC3=O)o2)c(C)c([N+](=O)[O-])c1 [Compound 3, 5-[5-(2,5-Dimethyl-3-nitrophenyl)furan-2-ylmethylene]-2-thioxo-dihydro-pyrimidine-4,6-dione]
- 125I-BDNF Binding (% binding) [1]: XXXXX (0 < XXXXX < 10)
- activity at 50 µM [1]: 0 to 10%
- 125I-NGF Binding (% binding) [2]: * (50 < *)
- NGF Activity % Maximal Binding ([2]; Table 1): * (50 < *)
- 125I-NGF X-linking Sample (% binding) [3]: * (50 < *)
- 125I-NGF X-linking p75 band (% binding) [3]: * (50 < *)
- 125I-BDNF X-linking Sample (% binding) [4]: XXXXX (0 < XXXXX < 10)
- 125I-BDNF X-linking p75 band (% binding) [4]: XXXXX (0 < XXXXX < 10)

SMILES: O=C(O)c1cc(-c2ccc(/C=C3\NC(=O)N(c4cccc(Cl)c4)C3=O)o2)ccc1Cl [Compound 43, 2-Chloro-5-{5-[1-(3-chlorophenyl)-2,5-dioxo-imidazolidin-4-ylidenemethyl]furan-2-yl}benzoic acid]
- 125I-BDNF Binding (% binding) [1]: XXX (20 < XXX < 30)
- activity at 50 µM [1, 6]: 30 to 40%
- 125I-NGF Binding (% binding) [2]: * (50 < *)
- NGF Activity % Maximal Binding ([2]; Table 1): * (50 < *)
- 125I-NGF X-linking Sample (% binding) [3]: * (50 < *)
- 125I-NGF X-linking p75 band (% binding) [3]: * (50 < *)
- 125I-BDNF X-linking Sample (% binding) [4]: XXX (20 < XXX < 30)
- 125I-BDNF X-linking p75 band (% binding) [4]: XXXXX (0 < XXXXX < 10)

SMILES: COc1ccc(-c2ccc(C=C3C(=O)N(c4ccc(C(=O)O)cc4)N=C3C)o2)c([N+](=O)[O-])c1 (racemic) [Compound A, 4-{4-[5-(4-Methoxy-2-nitro-phenyl)-furan-2-ylmethylene]-3-methyl-5-oxo-4,5-dihydro-pyrazol-1-yl}-benzoic acid]
- IC50 [5]: 15.64 ± 0.05 µM

SMILES: NS(=O)(=O)c1ccc(-c2ccc(/C=C3/SC(=S)N(CCC(=O)O)C3=O)o2)cc1 [Compound B]
- IC50 [5]: 10.56 ± 0.05 µM

SMILES: O=C1NC(=S)NC(=O)C1=Cc1ccc(-c2ccc(C(=O)O)c(Cl)c2)o1 [Compound 65, 2-Chloro-4-[5-(4,6-dioxo-2-thioxo-tetrahydro-pyrimidin-5-ylidenemethyl)furan-2-yl]benzoic acid]
- 125I-BDNF Binding (% binding) [1]: XXXXX (0 < XXXXX < 10)
- activity at 50 µM [1]: 0 to 10%
- 125I-NGF Binding (% binding) [2]: XXX (20 < XXX < 30)
- NGF Activity % Maximal Binding ([2]; Table 2): XXX (20 < XXX < 30)
- 125I-NGF X-linking Sample (% binding) [3]: * (50 < *)
- 125I-NGF X-linking p75 band (% binding) [3]: * (50 < *)
- 125I-BDNF X-linking Sample (% binding) [4]: XXXXX (0 < XXXXX < 10)
- 125I-BDNF X-linking p75 band (% binding) [4]: XXXXX (0 < XXXXX < 10)

SMILES: O=C1NC(=O)/C(=C\c2ccc(-c3ccc(Cl)c([N+](=O)[O-])c3)o2)S1 [Compound 97, 5-[5-(4-Chloro-3-nitrophenyl)furan-2-ylmethylene]-thiazolidine-2,4-dione]
- 125I-BDNF Binding (% binding) [1]: * (50 < *)
- activity at 50 µM [1, 7]: > 50%
- 125I-NGF Binding (% binding) [2]: * (50 < *)
- NGF Activity % Maximal Binding ([2]; Table 4): * (50 < *)
- 125I-NGF X-linking Sample (% binding) [3]: * (50 < *)
- 125I-NGF X-linking p75 band (% binding) [3]: * (50 < *)
- 125I-BDNF X-linking Sample (% binding) [4]: * (50 < *)
- 125I-BDNF X-linking p75 band (% binding) [4]: XX (30 < XX < 40)

SMILES: CCN1C(=O)S/C(=C/c2ccc(-c3ccc([N+](=O)[O-])cc3OC)o2)C1=O [Compound 58, 3-Ethyl-5-[5-(2-methoxy-4-nitrophenyl)furan-2-ylmethylene]-thiazolidine-2,4-dione]
- activity at 50 µM [1, 6]: 40 to 50%
- NGF Activity % Maximal Binding ([2]; Table 1): * (50 < *)

SMILES: O=C1NC(=S)NC(=O)C1=Cc1ccc(-c2ccc(C(=O)O)cc2)o1 [Compound 6, 4-[5-(4,6-Dioxo-2-thioxo-tetrahydro-pyrimidin-5-ylidenemethyl)furan-2-yl]benzoic acid]
- activity at 50 µM [1]: 0 to 10%
- NGF Activity % Maximal Binding ([2]; Table 1): * (50 < *)

SMILES: CCOC(=O)CN1C(=O)S/C(=C/c2ccc(-c3ccc(C(=O)O)c(Cl)c3)o2)C1=O [Compound 24, 2-Chloro-4-[5-(3-ethoxycarbonylmethyl-2,4-dioxo-thiazolidin-5-ylidenemethyl)furan-2-yl]benzoic acid]
- activity at 50 µM [1, 6]: 0 to 10%
- NGF Activity % Maximal Binding ([2]; Table 1): * (50 < *)

SMILES: Cc1c(-c2ccc(C=C3C(=O)NC(=O)NC3=O)o2)ccc([N+](=O)[O-])c1C [Compound 81, 5-[5-(2,3-Dimethyl-4-nitrophenyl)furan-2-ylmethylene]-pyrimidine-2,4,6-trione]
- activity at 50 µM [1]: 20 to 30%
- NGF Activity % Maximal Binding ([2]; Table 2): XX (30 < XX < 40)

SMILES: CCCCOC(=O)c1ccc(-c2ccc(/C=C3/SC(=S)N(CC(=O)O)C3=O)o2)cc1 [Compound 12, 4-[5-(3-Carboxymethyl-4-oxo-2-thioxo-thiazolidin-5-ylidenemethyl)furan-2-yl]benzoic acid butyl ester]
- activity at 50 µM [1, 6]: 0 to 10%
- NGF Activity % Maximal Binding ([2]; Table 1): * (50 < *)

SMILES: COC(=O)c1ccc(-c2ccc(/C=C3/NC(=O)N(Cc4ccc(F)cc4)C3=O)o2)c(C)c1 [Compound 46, 4-{5-[1-(4-Fluorobenzyl)-2,5-dioxo-imidazolidin-4-ylidenemethyl]furan-2-yl}-3-methylbenzoic acid methyl ester]
- activity at 50 µM [1, 6]: 30 to 40%
- NGF Activity % Maximal Binding ([2]; Table 1): * (50 < *)

SMILES: O=C1C(=Cc2ccc(-c3ccc([N+](=O)[O-])cc3)o2)SC(=S)N1Cc1cccnc1 [Compound 59, 5-[5-(4-Nitrophenyl)furan-2-ylmethylene]-3-pyridin-3-ylmethyl-2-thioxo-thiazolidin-4-one]
- activity at 50 µM [1, 6]: 40 to 50%
- NGF Activity % Maximal Binding ([2]; Table 1): * (50 < *)

SMILES: CCN1C(=O)S/C(=C\c2ccc(-c3ccc([N+](=O)[O-])cc3)o2)C1=O [Compound 110, 3-Ethyl-5-[5-(4-nitrophenyl)furan-2-ylmethylene]-thiazolidine-2,4-dione]
- activity at 50 µM [1, 7]: > 50%
- NGF Activity % Maximal Binding ([2]; Table 4): * (50 < *)
